US20060069132A1, “Azolecarboxamide herbicides” (priority 2004, published 2006)

Legend:
velvetleaf = assay: Test B pre-/postemergence herbicide test; format: in vivo, Abutilon theophrasti
Procedure, shortened: (§1)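 Evaluation is visual, comparing treated with control plants on a scale where 0 means no effect and 100 means full control. Treatments were preemergence, or postemergence on seedlings 2–18 cm tall, and held 13–15 days in the greenhouse.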

cocklebur = assay: Test B pre-/postemergence herbicide test; format: in vivo, Xanthium strumarium
Procedure, shortened: (§2)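 Herbicidal effect was judged by eye on a 0–100 scale after plants stood 13 to 15 days in the greenhouse following pre- or postemergence treatment with surfactant-containing formulations.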

rice [1] = assay: Test C flooded paddy test; format: in vivo, Oryza sativa
Description: (§3) At the same time, plants selected from these crop and weed species and also winter barley (Hordeum vulgare L.), blackgrass (Alopecurus myosuroides Huds.), canarygrass (Phalaris minor Retz.), chickweed (Stellaria media (L.) Vill.), downy bromegrass (Bromus tectorum L.), green foxtail (Setaria viridis (L.) Beauv.), Italian ryegrass (Lolium multiflorum Lam.), wheat (Triticum aestivum L.), wild oat (Avenafatua L.) and windgrass (Apera spica-venti (L.) Beauv.) were treated with postemergence applications of some of the test chemicals formulated in the same manner. Plants ranged in height from 2 to 18 cm (1- to 4-leaf stage) for postemergence treatments. Plant species in the flooded paddy test consisted of rice (Oryza sativa), smallflower umbrella sedge (Cyperus difformis L.), ducksalad (Heteranthera limosa (Sw.) Willd.) and barnyardgrass (Echinochloa crus-galli (L.) Beauv.) grown to the 2-leaf stage for testing. Treated plants and controls were maintained in a greenhouse for 12 to 14 days, after which time all species were compared to controls and visually evaluated. Plant response ratings, summarized in Table C, are based on a scale of 0 to 100 where 0 is no effect and 100 is complete control. A dash (-) response means no test result.

large crabgrass = assay: Test B pre-/postemergence herbicide test; format: in vivo, Digitaria sanguinalis
Procedure, shortened: as §1

lambsquarters = assay: Test B pre-/postemergence herbicide test; format: in vivo, Chenopodium album
Procedure, shortened: as §1

barnyardgrass [2] = assay: Test B pre-/postemergence herbicide test; format: in vivo, Echinochloa crus-galli; settings: for Plant response rating, Barnyardgrass: 500 g ai/ha
Procedure, shortened: as §2

giant foxtail = assay: Test B pre-/postemergence herbicide test; format: in vivo, Setaria faberi
Procedure, shortened: as §1

ducksalad [3] = assay: Test C flooded paddy test; format: in vivo, Heteranthera limosa
Description: as §3

[4] = tested on: small flower umbrella sedge; assay: Test B flooded paddy test; format: in vivo, Cyperus difformis; settings: 1000 g ai/ha, visual rating, scale 0 to 100 (0 no effect, 100 complete control), 13 to 15 days
Procedure, shortened: (§4)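 Treated at 2-leaf (paddy) or 1–4-leaf, 2–18 cm (postemergence); greenhouse 13–15 d; visual score vs control, 0 none to 100 complete control; dash = not tested.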

[5] = tested on: smallflower umbrella sedge; assay: Test C flooded paddy test; format: in vivo, Cyperus difformis
Description: as §3

blackgrass = assay: Test B postemergence herbicide test; format: in vivo, Alopecurus myosuroides; settings: scale 0 (no effect) to 100 (complete control)
Procedure, shortened: as §4

Surinam grass = assay: Test B pre-/postemergence herbicide test; format: in vivo, Urochloa decumbens
Procedure, shortened: as §1

barnyardgrass [6] = assay: Test C flooded paddy test; format: in vivo, Echinochloa crus-galli
Description: as §3

barnyardgrass [7] = assay: Test B flooded paddy test; format: in vivo, Echinochloa crus-galli; settings: 1000 g ai/ha, visual rating, scale 0 to 100 (0 no effect, 100 complete control), 13 to 15 days
Procedure, shortened: as §4

ducksalad [8] = assay: Test B flooded paddy test; format: in vivo, Heteranthera limosa; settings: 1000 g ai/ha, visual rating, scale 0 to 100 (0 no effect, 100 complete control), 13 to 15 days
Procedure, shortened: as §4

morningglory = assay: Test B pre-/postemergence herbicide test; format: in vivo, Ipomoea coccinea; settings: for Plant response rating, Morningglory: 500 g ai/ha
Procedure, shortened: as §2

rice [9] = assay: Test B flooded paddy test; format: in vivo, Oryza sativa; settings: 1000 g ai/ha, visual rating, scale 0 to 100 (0 no effect, 100 complete control), 13 to 15 days
Procedure, shortened: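 Each value is a visual 0–100 response rating taken against controls 13 to 15 days after treatment in the greenhouse. Plants received formulated chemical postemergence at the 1- to 4-leaf stage or, in flooded paddy, at the 2-leaf stage.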

wild oat = assay: Test B postemergence herbicide test; format: in vivo, Avena fatua; settings: scale 0 (no effect) to 100 (complete control)
Procedure, shortened: (§5)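 After treating 2-leaf paddy plants or 2–18 cm postemergence plants (1 to 4 leaves) with formulated chemical, researchers kept them in a greenhouse for 13–15 days. Effects were judged visually versus controls: 0 indicates none, 100 total control.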

pigweed = assay: Test B pre-/postemergence herbicide test; format: in vivo, Amaranthus retroflexus
Procedure, shortened: as §1

corn = assay: Test B pre-/postemergence herbicide test; format: in vivo, Zea mays
Procedure, shortened: as §1

wheat = assay: Test B postemergence herbicide test; format: in vivo, Triticum aestivum; parameters: key to Wheat plant response rating: 0 = no effect, 100 = complete control; settings: scale 0 (no effect) to 100 (complete control)
Procedure, shortened: as §5

[10] = 500 g ai/ha, visual rating 0-100, 0 no effect, 100 complete control, preemergence
[11] = Postemergence, 500 g ai/ha, visual rating after 13 to 15 days, scale 0 (no effect) to 100 (complete control)
[12] = postemergence, 125 g ai/ha, visual rating, scale 0 (no effect) to 100 (complete control)
[13] = preemergence, 125 g ai/ha, 0 to 100 scale, 0 is no effect, 100 is complete control
[14] = 62 g ai/ha, scale 0 to 100 (0 no effect, 100 complete control)
[15] = 125 g ai/ha, scale of 0 to 100, 0 is no effect, 100 is complete control
[16] = 250 g ai/ha, scale of 0 to 100, 0 is no effect, 100 is complete control
[17] = 500 g ai/ha, visual rating after 12 to 14 days, scale 0 to 100 (0 no effect, 100 complete control)
[18] = visual rating 0-100, 0 no effect, 100 complete control, preemergence
[19] = Postemergence, visual rating after 13 to 15 days, scale 0 (no effect) to 100 (complete control)
[20] = Postemergence, 500 g ai/ha, visual rating after 13 to 15 days
[21] = postemergence, 125 g ai/ha, visual rating

**Q.** How did the “Plant response rating, Velvetleaf” value (velvetleaf; [10]) turn out when `CON=C(C)c1cccc(NC(=O)c2cc(C(C)(C)C)nn2C)c1` [Compound 106] was run?
**A.** 0

**Q.** What about the “Plant response rating, Velvetleaf” value (velvetleaf; [11]) of the same compound?
**A.** 20

**Q.** And the “Velvetleaf plant response rating” value (velvetleaf; [12])?
**A.** 0

**Q.** And the “Plant response rating, Velvetleaf” value (velvetleaf; [13])?
**A.** 0

**Q.** What about the “Plant response rating, Cocklebur” value (cocklebur; [10]) of the same compound?
**A.** 0

**Q.** What about the “Plant response rating, Cocklebur” value (cocklebur; [11]) of the same compound?
**A.** 50

**Q.** And the “Cocklebur plant response rating” value (cocklebur; [12])?
**A.** 20

**Q.** And the “Plant response rating, Cocklebur” value (cocklebur; [13])?
**A.** 0

**Q.** And the “Rice plant response rating” value (rice [1]; [14])?
**A.** 0

**Q.** What about the “Rice plant response rating” value (rice [1]; [15]) of the same compound?
**A.** 0

**Q.** What about the “Rice plant response rating” value (rice [1]; [16]) of the same compound?
**A.** 0

**Q.** And the “Plant response rating, Rice” value (rice [1]; [17])?
**A.** 20

**Q.** And the “Plant response rating, Crabgrass, Large” value (large crabgrass; [10])?
**A.** 100

**Q.** And the “Plant response rating, Crabgrass, Large” value (large crabgrass; [11])?
**A.** 10

**Q.** And the “Crabgrass, Large plant response rating” value (large crabgrass; [12])?
**A.** 0

**Q.** And the “Plant response rating, Crabgrass, Large” value (large crabgrass; [13])?
**A.** 90

**Q.** What about the “Plant response rating, Lambsquarters” value (lambsquarters; [10]) of the same compound?
**A.** 100

**Q.** And the “Plant response rating, Lambsquarters” value (lambsquarters; [11])?
**A.** 90

**Q.** What about the “Lambsquarters plant response rating” value (lambsquarters; [12]) of the same compound?
**A.** 50

**Q.** And the “Plant response rating, Lambsquarters” value (lambsquarters; [13])?
**A.** 0

**Q.** And the “Plant response rating, Barnyardgrass” value (barnyardgrass [2]; [18])?
**A.** 70

**Q.** And the “Plant response rating, Barnyardgrass” value (barnyardgrass [2]; [19])?
**A.** 0

**Q.** And the “Barnyardgrass plant response rating” value (barnyardgrass [2]; [12])?
**A.** 0

**Q.** And the “Plant response rating, Foxtail, Giant” value (giant foxtail; [10])?
**A.** 40

**Q.** And the “Plant response rating, Foxtail, Giant” value (giant foxtail; [11])?
**A.** 0

**Q.** And the “Foxtail, Giant plant response rating” value (giant foxtail; [12])?
**A.** 0

**Q.** And the “Plant response rating, Foxtail, Giant” value (giant foxtail; [13])?
**A.** 10

**Q.** What about the “Ducksalad plant response rating” value (ducksalad [3]; [14]) of the same compound?
**A.** 0

**Q.** What about the “Ducksalad plant response rating” value (ducksalad [3]; [15]) of the same compound?
**A.** 0

**Q.** What about the “Ducksalad plant response rating” value (ducksalad [3]; [16]) of the same compound?
**A.** 0

**Q.** And the “Plant response rating, Ducksalad” value (ducksalad [3]; [17])?
**A.** 0

**Q.** And the “Sedge, Umbrella plant response rating” value [4]?
**A.** 90

**Q.** What about the “Sedge, Umbrella plant response rating” value [5, 14] of the same compound?
**A.** 0

**Q.** And the “Sedge, Umbrella plant response rating” value [5, 15]?
**A.** 0

**Q.** And the “Sedge, Umbrella plant response rating” value [5, 16]?
**A.** 30

**Q.** What about the “Plant response rating, Sedge, Umbrella” value [5, 17] of the same compound?
**A.** 80

**Q.** And the “Plant response rating, Blackgrass” value (blackgrass; [20])?
**A.** 0

**Q.** And the “Blackgrass plant response rating” value (blackgrass; [21])?
**A.** 0

**Q.** What about the “Plant response rating, Surinam Grass” value (Surinam grass; [10]) of the same compound?
**A.** 20

**Q.** And the “Plant response rating, Surinam Grass” value (Surinam grass; [11])?
**A.** 10

**Q.** What about the “Surinam Grass plant response rating” value (Surinam grass; [12]) of the same compound?
**A.** 10

**Q.** And the “Plant response rating, Surinam Grass” value (Surinam grass; [13])?
**A.** 0

**Q.** What about the “Barnyardgrass plant response rating” value (barnyardgrass [6]; [14]) of the same compound?
**A.** 0

**Q.** What about the “Barnyardgrass plant response rating” value (barnyardgrass [6]; [15]) of the same compound?
**A.** 0

**Q.** What about the “Barnyardgrass plant response rating” value (barnyardgrass [6]; [16]) of the same compound?
**A.** 0

**Q.** And the “Plant response rating, Barnyardgrass” value (barnyardgrass [6]; [17])?
**A.** 0

**Q.** And the “Barnyardgrass plant response rating” value (barnyardgrass [7])?
**A.** 0

**Q.** What about the “Ducksalad plant response rating” value (ducksalad [8]) of the same compound?
**A.** 80

**Q.** And the “Plant response rating, Morningglory” value (morningglory; [18])?
**A.** 10

**Q.** And the “Plant response rating, Morningglory” value (morningglory; [19])?
**A.** 10

**Q.** What about the “Morningglory plant response rating” value (morningglory; [12]) of the same compound?
**A.** 10

**Q.** And the “Rice plant response rating” value (rice [9])?
**A.** 0

**Q.** And the “Plant response rating, Oat, Wild” value (wild oat; [20])?
**A.** 20

**Q.** And the “Oat, Wild plant response rating” value (wild oat; [21])?
**A.** 10

**Q.** What about the “Plant response rating, Pigweed” value (pigweed; [10]) of the same compound?
**A.** 70

**Q.** And the “Plant response rating, Pigweed” value (pigweed; [11])?
**A.** 20

**Q.** What about the “Pigweed plant response rating” value (pigweed; [12]) of the same compound?
**A.** 10

**Q.** What about the “Plant response rating, Pigweed” value (pigweed; [13]) of the same compound?
**A.** 0

**Q.** And the “Plant response rating, Corn” value (corn; [10])?
**A.** 0

**Q.** What about the “Plant response rating, Corn” value (corn; [11]) of the same compound?
**A.** 10

**Q.** What about the “Corn plant response rating” value (corn; [12]) of the same compound?
**A.** 10

**Q.** And the “Plant response rating, Corn” value (corn; [13])?
**A.** 0

**Q.** And the “Plant response rating, Wheat” value (wheat; [20])?
**A.** 0

**Q.** And the “Wheat plant response rating” value (wheat; [21])?
**A.** 0
